Measurements taken from patent EP4620466A1, “TRIMETHOXYSTYRYL DERIVATIVES FOR USE IN THE TREATMENT OF PACLITAXEL-RESISTANT CANCER” (Instituto de Investigación Biomédica de Salamanca De la …, priority 2024, dated 2025).

Tests used:
Type in all cases: cell-based
[1] = system: CAL33 RPTX; experiment: MTT cell viability assay in paclitaxel-resistant cell line; settings: for sensitivity of paclitaxel-resistant cells (cell viability): CAL33 RPTX compared with parental CAL33, 24, 48 and 72 hours of exposure, six doses (Figures 1 and 2)
Description: • Figure 1. Comparison of the effect on cell viability in the parental and paclitaxel-resistant CAL33 cell lines after 24, 48 and 72 hours of exposure to six different doses of paclitaxel. X axis, time (hours). Y axis, cell viability (%). • Figure 2. Comparison of the effect on cell viability in the parental and paclitaxel-resistant CAL33 cell lines after 24, 48 and 72 hours of exposure to six different doses of Compound 39. X axis, Compund 39 (nM). Y axis, cell viability (%). *p-value < 0.05. **p-value < 0.01. ***p-value < 0.001.
In order to characterise resistance to taxanes in HNSCC, a paclitaxel-resistant cell line was generated from the CAL33 cell line, derived from tongue carcinoma, following the method of progressively increasing the dose of cytotoxic agent on the cells in culture. The generation of a stable paclitaxel-resistant cell line was confirmed by an MTT cell viability assay, named CAL33 RPTX (Figure 1).
In order to search for an alternative treatment with a similar but effective cellular effect on paclitaxel-resistant HNSCC cells, a cell viability assay was performed to test the response to Compound 39 of the CAL33 and CAL33 RPTX cell lines.

[2] = system: HeLa cells; experiment: Cell proliferation assay (XTT), cytostatic activity; settings: Homo sapiens, 72-h treatment, XTT cell proliferation kit
Description: […] cells were seeded in 96-well plates and incubated in the presence or the absence of the indicated compounds at concentrations ranging from 10^-5 to 10^-12 M. The cytostatic activity was measured after 72-h treatments using the XTT (sodium 3'-[1-(phenylaminocarbonyl)-3,4-tetrazolium]-bis(4- methoxy-6-nitro)-benzenesulfonic acid hydrate) cell proliferation kit (Roche Molecular Biochemicals; Mannheim, Germany) following the manufacturer's specifications. Each condition was seeded in triplicate, and experiments were repeated three times to calculate IC values by non-linear regression fitting the data.

[3] = system: HeLa cells; experiment: Cell proliferation assay with and without verapamil (MDR transporter check)
[4] = Homo sapiens, without verapamil (control), compounds for 72 h, read-out: potency in the absence of verapamil
[5] = read-out: potency in the presence of 10 µM verapamil, incubated with 10 µM verapamil for 2 h, then compounds for 72 h

Structure (SMILES) | sensitivity of paclitaxel-resistant cells (cell viability) [1] | IC50 [2] [nM] | effect on tumour cell viability ([1]; at very low doses, CAL33 and CAL33 RPTX cell lines (Figure 2)) | IC50 [3, 4] [nM] | IC50 [3, 5] [nM]
CC(=O)O[C@H]1C(=O)[C@@]2(C)[C@H]([C@H](OC(=O)c3ccccc3)[C@]3(O)C[C@H](OC(=O)[C@H](O)[C@@H](NC(=O)c4ccccc4)c4ccccc4)C(C)=C1C3(C)C)[C@]1(OC(C)=O)CO[C@@H]1C[C@@H]2O [paclitaxel] | resistant | – | – | – | –
COc1cc(/C=C\c2ccc3c(c2)c(C(N)=O)cn3C)cc(OC)c1OC [Compound 39, (Z)-1-Methyl-5-(3,4,5-trimethoxystyryl)-1H-indole-3-carboxamide] | maintain sensitivity | 1200 | pronounced effect | – | –
COc1cc(NS(=O)(=O)c2ccc3c(ccn3C)c2)cc(OC)c1OC [Compound 44, 1-Methyl-N-(3,4,5-trimethoxyphenyl)-1H-indole-5-sulfonamide] | – | 10.8 | – | 10.8 | 8.4
COc1cc(N(C)S(=O)(=O)c2ccc3c(c2)c(C#N)cn3C)cc(OC)c1OC [Compound 51, 3-Cyano-N,1-dimethyl-N-(3,4,5-trimethoxyphenyl)-1H-indole-5-sulfonamide] | – | 12.3 | – | 12.3 | 10.6
